# Source: ChEMBL document CHEMBL2074364, “Reversal of multidrug resistance of cancer through inhibition of P-glycoprotein by 5-bromotetrandrine” (Cancer Chemother Pharmacol, 2005)
# Key:
# [1] = molecular target: T1, ATP-dependent translocase ABCB1 (Homo sapiens, UniProt P08183); assay: TP_TRANSPORTER: increase in Doxorubicin intracellular accumulation in MCF-7/Dox cells; type: functional, cell-based
# [2] = molecular target: T1, ATP-dependent translocase ABCB1; assay: TP_TRANSPORTER: cell accumulation of doxorubicin in MCF-7/Dox cells; type: functional, cell-based
# T1 sequence (P08183 whole entry): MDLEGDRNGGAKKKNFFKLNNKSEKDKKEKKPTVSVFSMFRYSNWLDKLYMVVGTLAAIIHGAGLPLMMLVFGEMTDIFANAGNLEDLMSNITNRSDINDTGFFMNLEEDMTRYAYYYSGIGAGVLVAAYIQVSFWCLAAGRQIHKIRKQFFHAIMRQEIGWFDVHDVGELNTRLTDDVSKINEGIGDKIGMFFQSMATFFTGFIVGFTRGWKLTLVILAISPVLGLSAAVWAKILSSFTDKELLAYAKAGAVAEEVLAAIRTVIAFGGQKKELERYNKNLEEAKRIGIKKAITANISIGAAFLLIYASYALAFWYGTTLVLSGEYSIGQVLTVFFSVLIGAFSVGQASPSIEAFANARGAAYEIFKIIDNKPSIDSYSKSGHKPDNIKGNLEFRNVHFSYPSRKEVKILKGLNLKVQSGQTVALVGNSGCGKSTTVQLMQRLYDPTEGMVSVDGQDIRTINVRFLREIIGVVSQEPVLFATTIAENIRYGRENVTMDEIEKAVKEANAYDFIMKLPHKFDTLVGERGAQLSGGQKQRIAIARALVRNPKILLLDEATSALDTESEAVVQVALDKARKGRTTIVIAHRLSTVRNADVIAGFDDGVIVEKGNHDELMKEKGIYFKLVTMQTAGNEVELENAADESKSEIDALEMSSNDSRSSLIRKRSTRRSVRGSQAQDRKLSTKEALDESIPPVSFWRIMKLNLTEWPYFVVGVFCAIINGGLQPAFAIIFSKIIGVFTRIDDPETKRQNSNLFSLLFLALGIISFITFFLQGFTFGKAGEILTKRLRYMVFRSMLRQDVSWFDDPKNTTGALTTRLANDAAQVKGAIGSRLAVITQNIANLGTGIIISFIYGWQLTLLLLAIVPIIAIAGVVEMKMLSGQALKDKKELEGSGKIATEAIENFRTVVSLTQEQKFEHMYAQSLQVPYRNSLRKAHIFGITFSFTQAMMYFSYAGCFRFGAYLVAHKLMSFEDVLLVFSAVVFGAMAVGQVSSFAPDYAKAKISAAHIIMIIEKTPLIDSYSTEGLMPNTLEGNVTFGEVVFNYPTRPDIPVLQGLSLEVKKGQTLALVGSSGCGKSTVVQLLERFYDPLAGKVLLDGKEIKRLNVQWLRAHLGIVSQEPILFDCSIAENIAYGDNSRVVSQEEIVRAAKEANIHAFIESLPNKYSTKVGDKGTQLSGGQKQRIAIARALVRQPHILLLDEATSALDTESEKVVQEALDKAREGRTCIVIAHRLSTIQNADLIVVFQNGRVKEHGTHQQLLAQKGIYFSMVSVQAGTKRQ
structure (smiles),measurement,setting,value
COc1ccc2cc1Oc1ccc(cc1)C[C@@]1(C)c3cc(c(OC)cc3CCN1C)Oc1c(OC)c(OC)c(Br)c3c1[C@](C)(C2)N(C)CC3 [BROMOTETRANDRINE],Activity,[1],inhibitor [+]
same,Activity,[2],inhibitor [+]
